Data published in patent US6809065B2, “Herbicide containing substituted pyrazole derivative as active ingredient” (SDS Biotech K.K., priority 2001, dated 2004).

Tests used:
Chenopodium album [1] = experiment: Upland field foliage treatment (Test Example 1); format: in vivo; conditions: foliage treatment 14th day after sowing, wettable powder, 1 kg active ingredient per hectare, evaluated 21st day after application
Method in brief: (§1)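 Read-out is a visual index scored 21 days after treatment. Higher values mean more herbicidal effect on weeds and lower values mean better crop safety. Plants were raised from seed in upland soil and received a leaf-surface spray of 1 kg active ingredient per hectare at 14 days.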

Digitaria adscendens [2] = experiment: Upland field foliage treatment (Test Example 1); format: in vivo; conditions: foliage treatment 14th day after sowing, wettable powder, 1 kg active ingredient per hectare, evaluated 21st day after application
Method in brief: as §1

Setaria viridis [3] = experiment: Upland field foliage treatment (Test Example 1); format: in vivo; conditions: foliage treatment 14th day after sowing, wettable powder, 1 kg active ingredient per hectare, evaluated 21st day after application
Method in brief: as §1

Stellaria media [4] = experiment: Upland field foliage treatment (Test Example 1); format: in vivo; conditions: foliage treatment 14th day after sowing, wettable powder, 1 kg active ingredient per hectare, evaluated 21st day after application
Method in brief: as §1

soybean (Glycine max) [5] = experiment: Upland field foliage treatment (Test Example 1), crop; format: in vivo; conditions: foliage treatment 14th day after sowing, 1 kg active ingredient per hectare, evaluated 21st day, lower index = higher safety
Method in brief: as §1

[6] = tested on: wheat (Triticum aestivum); experiment: as above; format: in vivo; conditions: foliage treatment 14th day after sowing, 1 kg active ingredient per hectare, evaluated 21st day, lower index = higher safety
Method in brief: as §1

Chenopodium album [7] = experiment: Upland soil treatment (Test Example 2); format: in vivo; conditions: soil surface treatment next day after sowing, wettable powder, 1 kg active ingredient per hectare, evaluated 21st day after application
Method in brief: (§2)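 Index rating at day 21 after a single pre-emergence soil-surface application, 1 kg a.i./ha, made the day after sowing in upland soil; for crops a lower index indicates higher safety.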

Digitaria adscendens [8] = experiment: Upland soil treatment (Test Example 2); format: in vivo; conditions: soil surface treatment next day after sowing, wettable powder, 1 kg active ingredient per hectare, evaluated 21st day after application
Method in brief: as §2

Setaria viridis [9] = experiment: Upland soil treatment (Test Example 2); format: in vivo; conditions: soil surface treatment next day after sowing, wettable powder, 1 kg active ingredient per hectare, evaluated 21st day after application
Method in brief: as §2

Stellaria media [10] = experiment: Upland soil treatment (Test Example 2); format: in vivo; conditions: soil surface treatment next day after sowing, wettable powder, 1 kg active ingredient per hectare, evaluated 21st day after application
Method in brief: as §2

soybean (Glycine max) [11] = experiment: Upland soil treatment (Test Example 2), crop; format: in vivo; conditions: soil surface treatment next day after sowing, 1 kg active ingredient per hectare, evaluated 21st day, lower index = higher safety
Method in brief: as §2

[12] = tested on: wheat (Triticum aestivum); experiment: Upland soil treatment (Test Example 2), crop; format: in vivo; conditions: soil surface treatment next day after sowing, 1 kg active ingredient per hectare, evaluated 21st day, lower index = higher safety
Method in brief: as §2

Echinochloa spp. = experiment: Paddy field treatment (Test Example 3); format: in vivo, Echinochloa crusgalli; conditions: paddy pot, submerged 4 cm, dropped on water surface 10th day after transplantation, 1 kg active ingredient per hectare, evaluated 21st day
Method in brief: (§3)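 Pot test, flooded paddy soil (4 cm water); weeds sown, 2-leaf rice (Koshihikari) transplanted. Day 10 post-transplant: WP dropped on water, 1 kg a.i./ha. Score index at 21 d after application; higher = stronger herbicidal effect.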

Ammannia multiflora = experiment: Paddy field treatment (Test Example 3); format: in vivo; conditions: paddy pot, submerged 4 cm, dropped on water surface 10th day after transplantation, 1 kg active ingredient per hectare, evaluated 21st day
Method in brief: as §3

Monochoria vaginalis = experiment: Paddy field treatment (Test Example 3); format: in vivo; conditions: paddy pot, submerged 4 cm, dropped on water surface 10th day after transplantation, 1 kg active ingredient per hectare, evaluated 21st day
Method in brief: as §3

Scirpus juncoides = experiment: Paddy field treatment (Test Example 3); format: in vivo; conditions: paddy pot, submerged 4 cm, dropped on water surface 10th day after transplantation, 1 kg active ingredient per hectare, evaluated 21st day
Method in brief: as §3

[13] = tested on: rice (Oryza sative, variety: Koshihikari); experiment: Paddy field treatment (Test Example 3), crop; format: in vivo, Oryza sativa; conditions: transplanted rice two-leaf period, water surface treatment 10th day after transplantation, 1 kg active ingredient per hectare, evaluated 21st day, lower index = higher safety
Method in brief: as §3

COC=C(Cn1nc(-c2cccc(Cl)c2)c(Cl)c1SC)C(=O)OC [Compound 42]
Herbicidal activity Chenopodium album (Chenopodium album [1]): 4 (herbicidal effect of not less than 70% by weight and less than 90% by weight) | Herbicidal activity Digitaria adscendens (Digitaria adscendens [2]): 4 (herbicidal effect of not less than 70% by weight and less than 90% by weight) | Herbicidal activity Setaria viridis (Setaria viridis [3]): 4 (herbicidal effect of not less than 70% by weight and less than 90% by weight) | Herbicidal activity Stellaria media (Stellaria media [4]): 4 (herbicidal effect of not less than 70% by weight and less than 90% by weight) | Herbicidal activity Glycine max (soybean (Glycine max) [5]): 0 (herbicidal effect of not less than 0% by weight and less than 10% by weight) | Herbicidal activity Triticum aestivum [6]: 0 (herbicidal effect of not less than 0% by weight and less than 10% by weight) | Herbicidal activity Chenopodium album (Chenopodium album [7]): 4 (herbicidal effect of not less than 70% by weight and less than 90% by weight) | Herbicidal activity Digitaria adscendens (Digitaria adscendens [8]): 4 (herbicidal effect of not less than 70% by weight and less than 90% by weight) | Herbicidal activity Setaria viridis (Setaria viridis [9]): 4 (herbicidal effect of not less than 70% by weight and less than 90% by weight) | Herbicidal activity Stellaria media (Stellaria media [10]): 4 (herbicidal effect of not less than 70% by weight and less than 90% by weight) | Herbicidal activity Glycine max (soybean (Glycine max) [11]): 0 (herbicidal effect of not less than 0% by weight and less than 10% by weight) | Herbicidal activity Triticum aestivum [12]: 0 (herbicidal effect of not less than 0% by weight and less than 10% by weight) | Herbicidal activity Echinochloa spp. (Echinochloa spp.): 3 (herbicidal effect of not less than 50% by weight and less than 70% by weight) | Herbicidal activity Ammannia multiflora (Ammannia multiflora): 3 (herbicidal effect of not less than 50% by weight and less than 70% by weight) | Herbicidal activity Monochoria vaginalis (Monochoria vaginalis): 3 (herbicidal effect of not less than 50% by weight and less than 70% by weight) | Herbicidal activity Scirpus juncoides (Scirpus juncoides): 3 (herbicidal effect of not less than 50% by weight and less than 70% by weight) | Herbicidal activity Oryza sativa [13]: 0 (herbicidal effect of not less than 0% by weight and less than 10% by weight)

COC=C(Cn1nc(-c2ccccc2Cl)c(Br)c1C)C(=O)OC [Compound 27]
Herbicidal activity Chenopodium album (Chenopodium album [1]): 5 (herbicidal effect of not less than 90% by weight) | Herbicidal activity Digitaria adscendens (Digitaria adscendens [2]): 5 (herbicidal effect of not less than 90% by weight) | Herbicidal activity Setaria viridis (Setaria viridis [3]): 4 (herbicidal effect of not less than 70% by weight and less than 90% by weight) | Herbicidal activity Stellaria media (Stellaria media [4]): 5 (herbicidal effect of not less than 90% by weight) | Herbicidal activity Glycine max (soybean (Glycine max) [5]): 0 (herbicidal effect of not less than 0% by weight and less than 10% by weight) | Herbicidal activity Triticum aestivum [6]: 0 (herbicidal effect of not less than 0% by weight and less than 10% by weight) | Herbicidal activity Chenopodium album (Chenopodium album [7]): 4 (herbicidal effect of not less than 70% by weight and less than 90% by weight) | Herbicidal activity Digitaria adscendens (Digitaria adscendens [8]): 5 (herbicidal effect of not less than 90% by weight) | Herbicidal activity Setaria viridis (Setaria viridis [9]): 4 (herbicidal effect of not less than 70% by weight and less than 90% by weight) | Herbicidal activity Stellaria media (Stellaria media [10]): 5 (herbicidal effect of not less than 90% by weight) | Herbicidal activity Glycine max (soybean (Glycine max) [11]): 0 (herbicidal effect of not less than 0% by weight and less than 10% by weight) | Herbicidal activity Triticum aestivum [12]: 0 (herbicidal effect of not less than 0% by weight and less than 10% by weight) | Herbicidal activity Echinochloa spp. (Echinochloa spp.): 5 (herbicidal effect of not less than 90% by weight) | Herbicidal activity Ammannia multiflora (Ammannia multiflora): 5 (herbicidal effect of not less than 90% by weight) | Herbicidal activity Monochoria vaginalis (Monochoria vaginalis): 5 (herbicidal effect of not less than 90% by weight) | Herbicidal activity Scirpus juncoides (Scirpus juncoides): 5 (herbicidal effect of not less than 90% by weight) | Herbicidal activity Oryza sativa [13]: 1 (herbicidal effect of not less than 10% by weight and less than 30% by weight)

COC=C(CCn1cc(C)c(-c2ccccc2)n1)C(=O)OC [Compound 47]
Herbicidal activity Chenopodium album (Chenopodium album [1]): 4 (herbicidal effect of not less than 70% by weight and less than 90% by weight) | Herbicidal activity Digitaria adscendens (Digitaria adscendens [2]): 3 (herbicidal effect of not less than 50% by weight and less than 70% by weight) | Herbicidal activity Setaria viridis (Setaria viridis [3]): 3 (herbicidal effect of not less than 50% by weight and less than 70% by weight) | Herbicidal activity Stellaria media (Stellaria media [4]): 4 (herbicidal effect of not less than 70% by weight and less than 90% by weight) | Herbicidal activity Glycine max (soybean (Glycine max) [5]): 0 (herbicidal effect of not less than 0% by weight and less than 10% by weight) | Herbicidal activity Triticum aestivum [6]: 0 (herbicidal effect of not less than 0% by weight and less than 10% by weight) | Herbicidal activity Chenopodium album (Chenopodium album [7]): 4 (herbicidal effect of not less than 70% by weight and less than 90% by weight) | Herbicidal activity Digitaria adscendens (Digitaria adscendens [8]): 4 (herbicidal effect of not less than 70% by weight and less than 90% by weight) | Herbicidal activity Setaria viridis (Setaria viridis [9]): 4 (herbicidal effect of not less than 70% by weight and less than 90% by weight) | Herbicidal activity Stellaria media (Stellaria media [10]): 3 (herbicidal effect of not less than 50% by weight and less than 70% by weight) | Herbicidal activity Glycine max (soybean (Glycine max) [11]): 0 (herbicidal effect of not less than 0% by weight and less than 10% by weight) | Herbicidal activity Triticum aestivum [12]: 0 (herbicidal effect of not less than 0% by weight and less than 10% by weight) | Herbicidal activity Echinochloa spp. (Echinochloa spp.): 3 (herbicidal effect of not less than 50% by weight and less than 70% by weight) | Herbicidal activity Ammannia multiflora (Ammannia multiflora): 2 (herbicidal effect of not less than 30% by weight and less than 50% by weight) | Herbicidal activity Monochoria vaginalis (Monochoria vaginalis): 2 (herbicidal effect of not less than 30% by weight and less than 50% by weight) | Herbicidal activity Scirpus juncoides (Scirpus juncoides): 3 (herbicidal effect of not less than 50% by weight and less than 70% by weight) | Herbicidal activity Oryza sativa [13]: 0 (herbicidal effect of not less than 0% by weight and less than 10% by weight)

COC=C(Cn1nc(-c2ccccc2)c(Br)c1SC)C(=O)OC [Compound 44]
Herbicidal activity Chenopodium album (Chenopodium album [1]): 4 (herbicidal effect of not less than 70% by weight and less than 90% by weight) | Herbicidal activity Digitaria adscendens (Digitaria adscendens [2]): 4 (herbicidal effect of not less than 70% by weight and less than 90% by weight) | Herbicidal activity Setaria viridis (Setaria viridis [3]): 4 (herbicidal effect of not less than 70% by weight and less than 90% by weight) | Herbicidal activity Stellaria media (Stellaria media [4]): 4 (herbicidal effect of not less than 70% by weight and less than 90% by weight) | Herbicidal activity Glycine max (soybean (Glycine max) [5]): 0 (herbicidal effect of not less than 0% by weight and less than 10% by weight) | Herbicidal activity Triticum aestivum [6]: 0 (herbicidal effect of not less than 0% by weight and less than 10% by weight) | Herbicidal activity Chenopodium album (Chenopodium album [7]): 4 (herbicidal effect of not less than 70% by weight and less than 90% by weight) | Herbicidal activity Digitaria adscendens (Digitaria adscendens [8]): 4 (herbicidal effect of not less than 70% by weight and less than 90% by weight) | Herbicidal activity Setaria viridis (Setaria viridis [9]): 4 (herbicidal effect of not less than 70% by weight and less than 90% by weight) | Herbicidal activity Stellaria media (Stellaria media [10]): 4 (herbicidal effect of not less than 70% by weight and less than 90% by weight) | Herbicidal activity Glycine max (soybean (Glycine max) [11]): 0 (herbicidal effect of not less than 0% by weight and less than 10% by weight) | Herbicidal activity Triticum aestivum [12]: 0 (herbicidal effect of not less than 0% by weight and less than 10% by weight) | Herbicidal activity Echinochloa spp. (Echinochloa spp.): 3 (herbicidal effect of not less than 50% by weight and less than 70% by weight) | Herbicidal activity Ammannia multiflora (Ammannia multiflora): 3 (herbicidal effect of not less than 50% by weight and less than 70% by weight) | Herbicidal activity Monochoria vaginalis (Monochoria vaginalis): 3 (herbicidal effect of not less than 50% by weight and less than 70% by weight) | Herbicidal activity Scirpus juncoides (Scirpus juncoides): 3 (herbicidal effect of not less than 50% by weight and less than 70% by weight) | Herbicidal activity Oryza sativa [13]: 0 (herbicidal effect of not less than 0% by weight and less than 10% by weight)
